Values after ≈ are worked out from the molar mass of the structure shown. Active and inactive are the calls of the source. The rule behind the calls is not given here. Where a SMILES comes first, the peptide text is derived from it. [ ]: non-standard residue; d: D form. The star is where a group is joined. Succinyl(20-O-(20S)-CPT) = CC[C@@]1(OC(=O)CCC(=O)*)C(=O)OCc2c1cc1n(c2=O)Cc2cc3ccccc3nc2-1; Dnp = O=[N+]([O-])c1ccc(*)c([N+](=O)[O-])c1; DEAC = CCN(CC)c1ccc2cc(C(=O)*)c(=O)oc2c1; Nle = CCCC[C@H](N)C(=O)O
Columns and labels:
4T1 [1] = experiment: Cytostatic activity against mouse 4T1 cells expressing low SORT1 assessed as reduction in cell viability incubated for 72 hrs by MTT assay; type: functional, cell-based; conditions: 4T1, 72 h
MDA-MB-231 [2] = experiment: Anti-proliferative activity against human MDA-MB-231 cells assessed as inhibition of cell proliferation at 1.5 uM measured for 0 to 72 hrs by time-kill curve analysis; type: functional; conditions: time 0-72 hrs
[3] = Cytostatic activity against HEK293T cells assessed as reduction in cell viability incubated for 72 hrs by MTT assay; type: toxicity, cell-based, HEK-293T; conditions: human
MDA-MB-231 [4] = experiment: Anti-migration activity against human MDA-MB-231 cells assessed as cell motility at 1.5 uM incubated for 2 hrs followed by PBS washing and incubation in complete medium for 24 hrs by wound healing assay (reference value: 55.3%); type: functional
MDA-MB-231 [5] = experiment: Cytostatic activity against human MDA-MB-231 cells overexpressing SORT1 assessed as reduction in cell viability incubated for 72 hrs by MTT assay; type: functional, cell-based; conditions: MDA-MB-231, 72 h
[6] = Cytostatic activity against mouse L929 cells assessed as reduction in cell viability incubated for 72 hrs by MTT assay; type: toxicity, cell-based
4T1 [7] = experiment: Anti-migration activity against mouse 4T1 cells assessed as cell motility at 1.5 uM incubated for 2 hrs followed by PBS washing and incubation in complete medium for 24 hrs by wound healing assay (reference value: 68.9%); type: functional
Erythrocyte [8] = experiment: Induction of hemolysis in mouse erythrocytes at 0.03 to 30 uM incubated for 4 hrs; type: toxicity, cell-based; conditions: dose 0.03-30 µM
[9] = Prodrug conversion in 5% human serum assessed as CPT release by measuring increase in fluorescence intensity at 50 uM measured for 6 days by fluorescence spectrophotometric analysis; type: ADME, cell-free; conditions: 144 h, time 6 day
[10] = Prodrug conversion in human MDA-MB-231 cells overexpressing SORT1 assessed as CPT release by measuring increase in fluorescence intensity at 1.5 uM measured for 120 hrs by fluorescence based analysis; type: ADME, cell-based; conditions: mda-mb-231, 120 h
[11] = Prodrug conversion in 5% human serum assessed as CPT release by measuring increase in fluorescence intensity at 50 uM measured at 0 hrs by fluorescence spectrophotometric analysis; type: ADME, cell-free
MDA-MB-231 [12] = experiment: Anti-proliferative activity against human MDA-MB-231 cells assessed as inhibition of cell proliferation at 1XIC50 measured after 72 hrs by time-kill curve analysis; type: functional
MDA-MB-231 [13] = experiment: Anti-proliferative activity against human MDA-MB-231 cells assessed as inhibition of cell proliferation at 1XIC50 measured at <36 hrs by time-kill curve analysis; type: functional
[14] = Aqueous solubility of the compound in water by UV/Vis spectrophotometry relative to free camptothecin; type: physicochemical; conditions: buffer
MDA-MB-231 [15] = experiment: Anti-proliferative activity against human MDA-MB-231 cells assessed as inhibition of cell proliferation at 0.5XIC50 to 1XIC50 measured after 36 to 72 hrs by time-kill curve analysis; type: functional, cell-based; conditions: time 36-72 hrs
[16] = Drug uptake in human MDA-MB-231 cells assessed as increase in blue fluorescence intensity at 10 uM measured after 2 to 12 hrs by SYBR Green I staining based live cell imaging analysis; type: ADME; conditions: mda-mb-231, 10 µM, time 2-12 hrs
[17] = Induction of hemolysis in mouse erythrocytes assessed as hemolysis rate at 30 uM incubated for 4 hrs; type: toxicity, cell-based, Erythrocyte; conditions: read-out: Activity
[18] = Induction of hemolysis in mouse erythrocytes assessed as hemolysis rate at 0.3 uM incubated for 4 hrs; type: toxicity, cell-based, Erythrocyte; conditions: read-out: Activity
Erythrocyte [19] = experiment: Induction of hemolysis in mouse erythrocytes at >3 uM incubated for 4 hrs in presence of TH19P01; type: toxicity, cell-based
4T1 [20] = experiment: Anti-migration activity against mouse 4T1 cells at 1.5 uM incubated for 2 hrs in presence of TH19P01 followed by PBS washing and incubation in complete medium for 24 hrs by wound healing assay; type: functional, cell-based
MDA-MB-231 [21] = experiment: Anti-proliferative activity against human MDA-MB-231 cells assessed as inhibition of cell proliferation at 1XIC50 measured for 0 to 72 hrs in presence of TH19P01 by time-kill curve analysis; type: functional, cell-based; conditions: time 0-72 hrs
4T1 [22] = experiment: Cytostatic activity against mouse 4T1 cells expressing low SORT1 assessed as reduction in cell viability incubated for 72 hrs in presence of TH19P01 by MTT assay; type: functional, cell-based; conditions: 4T1, 72 h
[23] = Drug uptake in human MDA-MB-231 cells assessed as increase in blue fluorescence intensity at 10 uM measured after 2 to 12 hrs in presence of TH19P01 by SYBR Green I staining based live cell imaging analysis; type: ADME; conditions: mda-mb-231, 10 µM, time 2-12 hrs
MDA-MB-231 [24] = experiment: Anti-proliferative activity against human MDA-MB-231 cells assessed as inhibition of cell proliferation at 1XIC50 measured after 72 hrs in presence of TH19P01 by time-kill curve analysis; type: functional
MDA-MB-231 [25] = experiment: Cytostatic activity against human MDA-MB-231 cells overexpressing SORT1 assessed as reduction in cell viability incubated for 72 hrs in presence of TH19P01 by MTT assay; type: functional, cell-based; conditions: MDA-MB-231, 72 h
MDA-MB-231 [26] = experiment: Anti-proliferative activity against human MDA-MB-231 cells assessed as inhibition of cell proliferation at 1XIC50 measured for 0 to 72 hrs by time-kill curve analysis; type: functional, cell-based; conditions: time 0-72 hrs
MDA-MB-231 [27] = experiment: Anti-migration activity against human MDA-MB-231 cells assessed as cell motility at 1.5 uM incubated for 2 hrs in presence of TH19P01 followed by PBS washing and incubation in complete medium for 24 hrs by wound healing assay (reference value: 55.3%); type: functional
[28] = Aqueous solubility of the compound in water by UV/Vis spectrophotometry; type: physicochemical
[29] = Drug uptake in human MDA-MB-231 cells assessed as increase in blue fluorescence intensity at 10 uM by SYBR Green I staining based live cell imaging analysis; type: ADME; conditions: mda-mb-231, 10 µM, TDE = time-dependent effect, time 2-12 hrs

Row | Compound | IC50 (4T1 [1]) | IC50 at 72 h [3] | Activity (MDA-MB-231 [4]) | IC50 (MDA-MB-231 [5]) | IC50 at 72 h [6] | Activity (4T1 [7]) | Activity (Erythrocyte [8]) | inhibition (INH) (MDA-MB-231 [12]) | further results
1 | CCCC[C@H](NC(=O)[C@H](CC(N)=O)NC(=O)[C@H](CCCNC(=N)N)NC(=O)[C@@H](NC(=O)CNC(=O)[C@H](C)NC(=O)[C@H](CCCCN)NC(=O)[C@H](C)NC(=O)[C@H](CCCNC(=N)N)NC(=O)[C@@H](NC(=O)CNC(C)=O)C(C)C)C(C)C)C(=O)N[C@@H](Cc1ccccc1)C(=O)N[C@@H](CCCCN)C(=O)N[C@@H](CO)C(=O)N[C@@H](CCC(=O)O)C(=O)N[C@@H](CO)C(=O)N[C@@H](Cc1ccc(O)cc1)C(N)=O (Ac-GVRAKAGVRN[Nle]FKSESY-NH2) | > 100 µM | > 100 µM | 46.3% | > 100 µM | > 100 µM | 67.9% | Toxic | – | inhibition at 1.5 µM (MDA-MB-231 [2]): < 10%
2 | CCCC[C@H](NC(=O)[C@H](CC(N)=O)NC(=O)[C@H](CCCNC(=N)N)NC(=O)[C@@H](NC(=O)CNC(=O)[C@H](C)NC(=O)[C@H](CCCCNC(=O)CCC(=O)O[C@]1(CC)C(=O)OCc2c1cc1n(c2=O)Cc2cc3ccccc3nc2-1)NC(=O)[C@H](CCCCNc1ccc([N+](=O)[O-])cc1[N+](=O)[O-])NC(=O)[C@H](C)NC(=O)[C@H](CCCNC(=N)N)NC(=O)[C@@H](NC(=O)CNC(C)=O)C(C)C)C(C)C)C(=O)N[C@@H](Cc1ccccc1)C(=O)N[C@@H](CCCCNc1ccc([N+](=O)[O-])cc1[N+](=O)[O-])C(=O)N[C@@H](CCCCNC(=O)CCC(=O)O[C@]1(CC)C(=O)OCc2c1cc1n(c2=O)Cc2cc3ccccc3nc2-1)C(=O)N[C@@H](CO)C(=O)N[C@@H](CCC(=O)O)C(=O)N[C@@H](CO)C(=O)N[C@@H](Cc1ccc(O)cc1)C(N)=O (Ac-GVRAK(Dnp)K(Succinyl(20-O-(20S)-CPT))AGVRN[Nle]FK(Dnp)K(Succinyl(20-O-(20S)-CPT))SESY-NH2) | – | – | – | 1.52 µM | – | – | – | – | Drug metabolism [9]: Metabolite_Detected; Drug metabolism [10]: Metabolite_Detected; Drug metabolism [11]: Metabolite_Notdetected
3 | CCCC[C@H](NC(=O)[C@H](CC(N)=O)NC(=O)[C@H](CCCNC(=N)N)NC(=O)[C@@H](NC(=O)CNC(=O)[C@H](C)NC(=O)[C@H](CCCCNC(=O)CCC(=O)O[C@]1(CC)C(=O)OCc2c1cc1n(c2=O)Cc2cc3ccccc3nc2-1)NC(=O)[C@H](C)NC(=O)[C@H](CCCNC(=N)N)NC(=O)[C@@H](NC(=O)CNC(C)=O)C(C)C)C(C)C)C(=O)N[C@@H](Cc1ccccc1)C(=O)N[C@@H](CCCCNC(=O)CCC(=O)O[C@]1(CC)C(=O)OCc2c1cc1n(c2=O)Cc2cc3ccccc3nc2-1)C(=O)N[C@@H](CO)C(=O)N[C@@H](CCC(=O)O)C(=O)N[C@@H](CO)C(=O)N[C@@H](Cc1ccc(O)cc1)C(N)=O (Ac-GVRAK(Succinyl(20-O-(20S)-CPT))AGVRN[Nle]FK(Succinyl(20-O-(20S)-CPT))SESY-NH2) | 2.05 µM | 11.1 µM | 13.3% | 1.47 µM | > 100 µM | 58.6% | Toxic | 45.3% | inhibition (INH) (MDA-MB-231 [13]): <10%; fold change (FC) [14]: 90; Activity (MDA-MB-231 [15]): Dose-Dependent Effect; Drug uptake [16]: Active; hemolysis at 4 h, 30 µM [17]: < 5%; hemolysis at 4 h, 0.3 µM [18]: 1.5%
4 | CC[C@@]1(O)C(=O)OCc2c1cc1n(c2=O)Cc2cc3ccccc3nc2-1 [CAMPTOTHECIN] | 0.03 µM | < 0.01 µM | 44.6% | 0.63 µM | 15.7 µM | 69.2% | Toxic | 52.8% | Activity (Erythrocyte [19]): Toxic; Activity (4T1 [20]): Active; Activity (MDA-MB-231 [21]): Active; IC50 (4T1 [22]): < 0.032 µM; Drug uptake [23]: Active; inhibition (INH) (MDA-MB-231 [24]): 50.8%; IC50 (MDA-MB-231 [25]): 0.72 µM; Activity (MDA-MB-231 [26]): Active; Activity (MDA-MB-231 [27]): 37.7%; solubility [28]: 3.6 µM (≈ 1.25 µg/mL)
5 | CCCC[C@H](NC(=O)[C@H](CC(N)=O)NC(=O)[C@H](CCCNC(=N)N)NC(=O)[C@@H](NC(=O)CNC(=O)[C@H](C)NC(=O)[C@H](CCCCNC(=O)c1cc2ccc(N(CC)CC)cc2oc1=O)NC(=O)[C@H](C)NC(=O)[C@H](CCCNC(=N)N)NC(=O)[C@@H](NC(=O)CNC(C)=O)C(C)C)C(C)C)C(=O)N[C@@H](Cc1ccccc1)C(=O)N[C@@H](CCCCNC(C)=O)C(=O)N[C@@H](CO)C(=O)N[C@@H](CCC(=O)O)C(=O)N[C@@H](CO)C(=O)N[C@@H](Cc1ccc(O)cc1)C(N)=O (Ac-GVRAK(DEAC)AGVRN[Nle]FK(Ac)SESY-NH2) | – | – | – | > 100 µM | – | – | – | – | Drug uptake [29]: Tde

From ChEMBL document CHEMBL6127028, “Design and synthesis of TH19P01-Camptothecin based hybrid peptides inducing effective anticancer responses on sortilin positive cancer cells” (Bioorg Med Chem, 2024)
